In the test the target is T1, recombinant human estrone sulfatase (Homo sapiens, UniProt P08842).
T1 construct: made in house; host or cells: CHO (Chinese hamster ovary) cells
T1 sequence (P08842 22-583): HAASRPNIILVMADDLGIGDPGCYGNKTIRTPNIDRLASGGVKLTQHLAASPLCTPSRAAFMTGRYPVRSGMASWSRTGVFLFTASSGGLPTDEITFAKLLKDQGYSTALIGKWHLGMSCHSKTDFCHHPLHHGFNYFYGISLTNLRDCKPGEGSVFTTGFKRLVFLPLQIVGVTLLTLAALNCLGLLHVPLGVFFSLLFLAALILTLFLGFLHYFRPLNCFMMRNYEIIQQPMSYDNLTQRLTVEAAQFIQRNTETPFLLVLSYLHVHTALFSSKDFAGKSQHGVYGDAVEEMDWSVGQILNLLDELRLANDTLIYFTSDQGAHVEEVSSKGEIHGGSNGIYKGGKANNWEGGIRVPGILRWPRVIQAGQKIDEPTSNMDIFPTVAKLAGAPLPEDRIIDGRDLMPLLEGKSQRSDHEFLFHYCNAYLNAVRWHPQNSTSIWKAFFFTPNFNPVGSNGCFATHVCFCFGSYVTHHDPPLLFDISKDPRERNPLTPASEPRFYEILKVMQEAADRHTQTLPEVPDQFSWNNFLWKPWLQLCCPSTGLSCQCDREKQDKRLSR
The test is described as follows: Estrone sulfatase (steroid sulfatase) inhibition test. The format is biochemical. The note with it: test compound 1 μM; [6,7-3H] estrone sulfate 3.3 nmol/L; pH 7; 1 hour at 37° C.; read-out: Inhibitory activity against estrone sulfatase, Inhibition % (1 μM). The protocol:
Estrone Sulfatase (Steroid Sulfatase) Inhibition Test:
[6,7-^3H] Estrone sulfate (final concentration, 3.3 nmol/L; 300,000 dpm/tube), recombinant human estrone sulfatase (33 ng/tube) and an estra-1,3,5(10),16-tetraene derivative (final concentration, 1 μmol/L) were added to a phosphate buffer (pH 7; final volume, 0.15 mL) containing 0.25 mol/L of sucrose and 0.04 mol/L of nicotinamide, and allowed to enzymatically react for 1 hour at 37° C. The recombinant human estrone sulfatase was obtained by transforming a human estrone sulfatase gene into CHO (Chinese hamster ovary) cells and expressing it in the cells, and used after partial purification. After completion of the enzyme reaction, the reaction solution was mixed with toluene (0.5 mL), followed by stirring, and the mixture was centrifuged for 5 minutes at 9,000 rpm. Thereafter, the toluene extraction layer was separated and the radioactivity of the resulting [^3H]-estrone was measured with a liquid scintillation counter. The measurement was carried out by duplication, and the fluctuation within the assay was 10% or less. An enzyme reaction in the absence of the test compound was carried out at the same time. The activity of the test compound to inhibit estrone sulfatase was calculated by the following formula.
Inhibitory activity against estrone sulfatase (%)=100−(100×(A/B)) […]

On to `C[C@]12CC[C@@H]3c4ccc(O)cc4CC[C@H]3[C@@H]1CC=C2C(=O)O` [Compound 1, 3-hydroxyestra-1,3,5(10), 16-tetraene-17-carboxylic acid], for which the inhibition at 1 µM worked out at 48%.

The values above are taken from patent publication US6638923B2, “Estra-1,3,5(10),16-tetraene derivatives” (Kyowa Hakko Kogyo Co., Ltd., priority 1999, dated 2003).
